Results published in the NIST ThermoML archive (doi:10.1007/s10765-010-0768-y).

Test: xn = mol fraction of the nth substance listed
Conditions: 101 kPa, Liquid, Pycnometric method

C=CC(=O)OCCCC [butyl 2-propenoate] + c1ccccc1
mass density [kg/m3]
Conditions	288.15 K	293.15 K	298.15 K	303.15 K	308.15 K	313.15 K	318.15 K
x1 = 0.0722	887.23	881.89	876.56	871.23	865.9	860.57	855.24
x1 = 0.142	889.79	884.48	879.17	873.86	868.56	863.26	857.96
x1 = 0.2062	891.94	886.65	881.36	876.08	870.8	865.52	860.24
x1 = 0.2794	894.12	888.87	883.62	878.37	873.12	867.87	862.62
x1 = 0.3586	896.24	891.02	885.8	880.58	875.36	870.14	864.92
x1 = 0.4363	898.02	892.83	887.64	882.46	877.28	872.1	866.92
x1 = 0.5074	899.4	894.25	889.11	883.97	878.83	873.69	868.55
x1 = 0.5818	900.63	895.53	890.43	885.33	880.23	875.13	870.03
x1 = 0.6423	901.47	896.4	891.33	886.26	881.2	876.14	871.08
x1 = 0.7226	902.36	897.34	892.32	887.3	882.29	877.28	872.27
x1 = 0.7902	902.91	897.94	892.97	888	883.03	878.07	873.11
x1 = 0.8563	903.29	898.38	893.47	888.56	883.65	878.75	873.85
x1 = 0.9305	903.53	898.69	893.85	889.01	884.18	879.35	874.52
x1 = 1	903.6	898.85	894.1	889.35	884.6	879.85	875.1

C=CC(=O)OCCCC [butyl 2-propenoate] + Cc1cccc(C)c1
mass density [kg/m3]
Conditions	288.15 K	293.15 K	298.15 K	303.15 K	308.15 K	313.15 K	318.15 K
x1 = 0.0732	871.73	867.39	863.05	858.71	854.37	850.04	845.71
x1 = 0.1432	874.65	870.26	865.87	861.48	857.1	852.72	848.34
x1 = 0.2103	877.37	872.94	868.51	864.08	859.66	855.24	850.82
x1 = 0.2841	880.28	875.81	871.34	866.87	862.41	857.95	853.49
x1 = 0.3605	883.19	878.68	874.17	869.66	865.16	860.66	856.16
x1 = 0.4318	885.82	881.28	876.74	872.2	867.66	863.12	858.58
x1 = 0.5006	888.28	883.7	879.12	874.55	869.98	865.41	860.84
x1 = 0.5778	890.95	886.34	881.73	877.12	872.51	867.9	863.3
x1 = 0.6534	893.46	888.81	884.17	879.53	874.89	870.25	865.61
x1 = 0.7204	895.6	890.93	886.26	881.59	876.92	872.25	867.58
x1 = 0.7935	897.84	893.13	888.43	883.73	879.03	874.33	869.63
x1 = 0.8579	899.73	895	890.27	885.54	880.82	876.1	871.38
x1 = 0.9306	901.78	897.03	892.28	887.53	882.79	878.05	873.31
x1 = 1	903.6	898.85	894.1	889.35	884.6	879.85	875.1

C=CC(=O)OCCCC [butyl 2-propenoate] + Cc1ccccc1
mass density [kg/m3]
Conditions	288.15 K	293.15 K	298.15 K	303.15 K	308.15 K	313.15 K	318.15 K
x1 = 0.0704	875.4	870.63	865.86	861.09	856.32	851.55	846.79
x1 = 0.1402	878.72	873.92	869.12	864.32	859.52	854.72	849.92
x1 = 0.2054	881.63	876.8	871.97	867.14	862.31	857.48	852.65
x1 = 0.2799	884.72	879.86	875	870.15	865.31	860.47	855.63
x1 = 0.3604	887.81	882.94	878.07	873.2	868.34	863.48	858.62
x1 = 0.4338	890.4	885.52	880.64	875.77	870.9	866.03	861.16
x1 = 0.5098	892.88	888	883.12	878.24	873.36	868.48	863.6
x1 = 0.5836	895.08	890.19	885.31	880.43	875.55	870.67	865.79
x1 = 0.6584	897.1	892.22	887.34	882.46	877.58	872.7	867.82
x1 = 0.7198	898.6	893.73	888.86	883.99	879.12	874.25	869.38
x1 = 0.7912	900.18	895.32	890.46	885.6	880.75	875.9	871.05
x1 = 0.8578	901.48	896.64	891.8	886.96	882.12	877.28	872.44
x1 = 0.9324	902.74	897.93	893.12	888.31	883.5	878.69	873.88
x1 = 1	903.6	898.85	894.1	889.35	884.6	879.85	875.1

C=CC(=O)OCCCC [butyl 2-propenoate] + Cc1ccc(C)cc1
mass density [kg/m3]
Conditions	288.15 K	293.15 K	298.15 K	303.15 K	308.15 K	313.15 K	318.15 K
x1 = 0.0712	868.91	864.5	860.09	855.68	851.28	846.88	842.48
x1 = 0.1429	872.25	867.79	863.33	858.87	854.42	849.97	845.52
x1 = 0.213	875.39	870.89	866.39	861.89	857.39	852.9	848.41
x1 = 0.2833	878.45	873.91	869.37	864.84	860.31	855.78	851.25
x1 = 0.3623	881.76	877.19	872.62	868.05	863.48	858.91	854.34
x1 = 0.4313	884.56	879.95	875.34	870.74	866.14	861.54	856.94
x1 = 0.5088	887.58	882.94	878.3	873.66	869.03	864.4	859.77
x1 = 0.5829	890.35	885.68	881.01	876.34	871.68	867.02	862.36
x1 = 0.6542	892.91	888.21	883.51	878.82	874.13	869.44	864.75
x1 = 0.7216	895.22	890.5	885.78	881.06	876.35	871.64	866.93
x1 = 0.7922	897.54	892.8	888.06	883.32	878.58	873.85	869.12
x1 = 0.8586	899.61	894.85	890.09	885.33	880.58	875.83	871.08
x1 = 0.9294	901.67	896.91	892.15	887.39	882.63	877.88	873.13
x1 = 1	903.6	898.85	894.1	889.35	884.6	879.85	875.1
